Measured values taken from publication PMC6664396, “A golden opportunity: benzofuranone modifications of aurones and their influence on optical properties, toxicity, and potential as dyes” (Beilstein Journal of Organic Chemistry, 2019).

Experiments:
[1] = UV–vis spectra in acetonitrile (λmax, extinction coefficient); format: physicochemical; parameters: λmax: unit: nm; settings: for dissolution for ε determination: in CH3CN, printed in the ε column
Experimental: With the desired compounds in hand, their UV–visible spectra were recorded at concentrations between 29 and 44 μM in acetonitrile (Figure 3 and Table 1). While not all substituents were prepared at every position, some interesting trends were observed. Substitution at the 4-position whether halogen or hydroxy afforded essentially identical lambda maxima (390 nm), slighly red-shifted compared to the unsubstituted compound 1. On the other hand, hydroxy groups at the 6-position result in a significant blue shift of this lambda max by roughly 40 nm to around 338 nm, presumably due to their donating effect and conjugation with the carbonyl oxygen. […] On the other hand, substitution at the 7-position had virtually no effect, which is to be expected due to the lack of direct conjugation with the carbonyl as well as the only modest electronic effects of alkyl, chlorine, and bromine. In general, the substituent effects are all fairly modest and result in fairly moderate changes in the extinction coefficient (although hydroxy substitution does definitely increase this value by roughly 50%).

[2] = system: Hep G2 human liver cancer cells; assay: Hep G2 cytotoxicity assay (MTT); format: cell-based; parameters: Average % Inhibition: tested at 200 µM; settings: for Hep G2 % inhibition: 200 μM concentration of compound, 3 days incubation, MTT readout; for % Inhibition: Hep G2 MTT absorbance relative to vehicle; for Average % Inhibition: average of Triplicates 1-3 (T1, T2, T3), Hep G2 MTT
Experimental: An initial screening of toxicity was conducted at a fairly high concentration (200 μM) on the present series of compounds using a standard HEP G2 inhibition assay (Table 1). Compared to a currently used yellow dye (tartrazine), the aurones are similar to more toxic. Within the aurone series, though, an interesting pair of trends can be observed. First, all hydroxylated aurones are comparatively more toxic, displaying >50% inhibition at 200 μM. Methyl groups are similarly mostly more toxic. For the halogens, however, location is fairly important, with the 6 or 7 position being much less toxic (similar to tartrazine) and dramatically better than the unsubstituted base compound 1, with the unexpected exception of 7-bromo compound 10. Whether this trend is general or not for aurone compounds is an interesting question for future study.
Hep G2 cytotoxicity assay
Hep G2 human liver cancer cells were cultured in phenol red Dulbecco’s
Modified Eagle Medium (DMEM) with 10% fetal bovine serum (FBS) and 1% Pen-strep (PSG) under 37°C and 5% CO2 atmospheric conditions. The cells were washed with phosphate buffered saline (PBS) and diluted with phenol red free DMEM to a concentration between 200,000 to 250,000 cells/mL. The cells we re distributed in a 96-well plate with each well containing 100 µL of the cell solution and were allowed to settle for 2 hours in the incubator. The cells were then treated with 200 µM of the aurones in DMSO and the known dyes in 10:90 (v:v) DMSO/ultrapure water in triplicates and were left in the incubator for 3 days. The vehicles were used as the negative controls (DMSO for the aurones and 10:90 DMSO:ultrapure water for the known dyes). 20 µL of 5 mg/mL MTT (3-(4,5-dimethylthiazol-2-yl)-2,5-diphenyltetrazolium bromide) was added to each well containing treated cells after the 3-day incubation period and was allowed to settle in the incubator for 3.5 more hours. Finally, the media was removed from the wells and replaced by 100 µL of DMSO to lyse the cells and dissolve the formazan crystals that were formed. The absorbance was then recorded on the SpectraMax M5 Multi -Mode Microplate Reader. The procedure was repeated two more times using different batches of cultured Hep G2 cells on different days. […]

[3] = UV–vis spectra determined in CH3CN
[4] = supplement sheet Tabular ε Data, slope of linear equation, unit not given, in L mol⁻¹ cm⁻¹
[5] = supplement sheet Tabular ε Data, unit not given

Row | Molecule | ε ([1]; UV–vis in CH3CN, at λmax) | λmax [1, 3] | ε [1, 4] | λmax [1, 5] | Hep G2 % inhibition [2] | % Inhibition ([2]; Triplicate 1) | % Inhibition ([2]; Triplicate 2) | % Inhibition ([2]; Triplicate 3) | dissolution for ε determination [1] | dissolution for ε determination ([1]; listed as 6OH7Me) | Average % Inhibition [2]
1 | Cc1ccc(/C=C2\Oc3ccc(Cl)cc3C2=O)cc1 [Compound 5] | 16551 L/mol/cm | 394 nm | 16551 | 394 | 72.68 ± 2.77% | 72.62% | 63.25% | 82.18% |  |  | 
2 | Cc1ccc(/C=C2\Oc3ccc(C)cc3C2=O)cc1 [Compound 11] | 15470 L/mol/cm | 390 nm | 15470 | 390 | 80.88 ± 1.38% | 79.75% | 75.21% | 87.68% |  |  | 
3 | Cc1ccc(/C=C2\Oc3cc(C)c(C)cc3C2=O)cc1 [Compound 12] | 19522 L/mol/cm | 382 nm | 19522 | 382 | 24.95 ± 2.23% | 30.58% | 22.83% | 21.44% |  |  | 
4 | Cc1ccc(/C=C2\Oc3cc(Br)ccc3C2=O)cc1 [Compound 9] | 22435 L/mol/cm | 378 nm | 22435 | 378 | 75.22 ± 3.84% | 77.38% | 72.50% | 75.78% |  |  | 
5 | Cc1ccc(/C=C2\Oc3c(ccc(O)c3C)C2=O)cc1 [Compound 17] |  | 336 nm |  | 336 | 78.58 ± 7.11% | 77.81% | 74.71% | 83.21% | will not dissolve completely | will not dissolve | 
6 | Cc1ccc(/C=C2\Oc3ccc(F)cc3C2=O)cc1 [Compound 2] | 17188 L/mol/cm | 394 nm | 17188 | 394 | 87.01 ± 0.56% | 90.35% | 81.77% | 88.89% |  |  | 
7 | Cc1ccc(/C=C2\Oc3cc(O)ccc3C2=O)cc1 [Compound 14] | 33050 L/mol/cm | 338 nm | 33050 | 338 | 66.79 ± 3.04% | 60.23% | 53.07% | 87.07% |  |  | 
8 | Cc1ccc(C=C2Oc3ccc(Br)cc3C2=O)cc1 [Compound 8] | 15112 L/mol/cm | 394 nm | 15112 | 394 | 59.35 ± 1.25% | 65.35% | 37.11% | 75.61% |  |  | 
9 | Cc1ccc(/C=C2\Oc3c(Cl)cccc3C2=O)cc1 [Compound 7] | 17247 L/mol/cm | 386 nm | 17247 | 386 | 3.64 ± 3.64% | 7.01% | -3.78% | 7.69% |  |  | 
10 | Cc1ccc(/C=C2\Oc3c(C)cccc3C2=O)cc1 [Compound 13] | 18380 L/mol/cm | 386 nm | 18380 | 386 | 87.54 ± 1.61% | 89.87% | 82.08% | 90.66% |  |  | 
11 | Cc1ccc(/C=C2\Oc3cccc(O)c3C2=O)cc1 [Compound 15] | 22664 L/mol/cm | 390 nm | 22664 | 390 | 54.04 ± 4.65% | 62.56% | 40.66% | 58.91% |  |  | 
12 | Cc1ccc(/C=C2\Oc3c(Br)cccc3C2=O)cc1 [Compound 10] | 22250 L/mol/cm | 390 nm | 22250 | 390 |  | 8.16% | -1.79% | 11.18% |  |  | 5.85%
13 | Cc1ccc(/C=C2\Oc3cc(F)ccc3C2=O)cc1 [Compound 3] | 24252 L/mol/cm | 370 nm | 24252 | 370 | 3.52 ± 3.39% | 5.64% | 13.37% | -8.44% |  |  | 
14 | Cc1ccc(/C=C2\Oc3cc(Cl)ccc3C2=O)cc1 [Compound 6] | 23187 L/mol/cm | 378 nm | 23187 | 378 | 25.07 ± 18.77% | 19.67% | 34.31% | 21.23% |  |  | 
15 | Alizarin Y [reference compound] |  |  |  |  | -54.45% | -50.46% | -60.58% | -52.30% |  |  | 
16 | Cc1ccc(/C=C2\Oc3cccc(Cl)c3C2=O)cc1 [Compound 4] | 17129 L/mol/cm | 390 nm | 17129 | 390 |  | 24.72% | 7.19% | 13.49% |  |  | 15.13%
17 | Cc1ccc(C=C2Oc3cc(O)cc(C)c3C2=O)cc1 [Compound 16] | 30445 L/mol/cm | 338 nm | 30445 | 338 | 67.76 ± 6.06% | 77.36% | 54.17% | 71.74% |  |  | 
18 | O=C([O-])C1=NN(c2ccc(S(=O)(=O)[O-])cc2)C(=O)C1N=Nc1ccc(S(=O)(=O)[O-])cc1.[Na+].[Na+].[Na+] (stereo not shown) [tartrazine, reference compound] |  |  |  |  | 6.81% | 14.72% | 3.80% | 1.93% |  |  | 
